Reference: ChEMBL document CHEMBL3392963, “Piperazine derivatives: synthesis, inhibition of the Mycobacterium tuberculosis enoyl-acyl carrier protein reductase and SAR studies” (Eur J Med Chem, 2015)
In brackets after ≈: the same amount, converted by molar mass. Activity calls are given as the source filed them. No cut-off for these calls is given here.

Key:
[1] = target: T1, Enoyl-[acyl-carrier-protein] reductase [NADH] (Mycobacterium tuberculosis, UniProt P9WGR1); test: Inhibition of Mycobacterium tuberculosis recombinant InhA assessed as NADH oxidation to NAD+ using 2-trans-dodecenoyl-CoA substrate by UV/visible spectrophotometry
T1 sequence (P9WGR1 whole entry): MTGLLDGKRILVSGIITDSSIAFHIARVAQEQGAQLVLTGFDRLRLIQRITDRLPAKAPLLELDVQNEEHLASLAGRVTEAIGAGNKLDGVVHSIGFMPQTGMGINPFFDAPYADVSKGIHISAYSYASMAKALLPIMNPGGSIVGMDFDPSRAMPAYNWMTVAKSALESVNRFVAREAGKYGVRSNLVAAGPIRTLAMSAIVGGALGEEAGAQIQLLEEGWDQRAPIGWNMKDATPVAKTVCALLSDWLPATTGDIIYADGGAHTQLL

[2] = system: Mycobacterium tuberculosis; test: Antimycobacterial activity against Mycobacterium tuberculosis H37Rv assessed as inhibition of mycobacterial growth after 7 days by REMA method; details: 168 h
[3] = target: T2, Enoyl-[acyl-carrier-protein] reductase [NADH] (Mycobacterium tuberculosis) (UniProt P9WGR1)
T2 sequence (whole entry): T1 sequence (P9WGR1 whole entry)
Description: Inhibition of Mycobacterium tuberculosis recombinant InhA assessed as NADH oxidation to NAD+ at 0.2 uM using 2-trans-dodecenoyl-CoA substrate measured up to 30 mins by UV/visible spectrophotometry

[4] = target: T2, Enoyl-[acyl-carrier-protein] reductase [NADH] (Mycobacterium tuberculosis); remark: listed apart in the source
Description: Uncompetitive inhibition of Mycobacterium tuberculosis recombinant InhA assessed as inhibitory dissociation constant for the enzyme-substrate-inhibitor complex by measuring NADH oxidation to NAD+ using fixed 2-trans-dodecenoyl-CoA substrate and varying NADH levels by UV/visible spectrophotometry

[5] = target: T2, Enoyl-[acyl-carrier-protein] reductase [NADH] (Mycobacterium tuberculosis); remark: listed apart in the source
Description: Competitive inhibition of Mycobacterium tuberculosis recombinant InhA assessed as inhibitory dissociation constant for the enzyme-inhibitor complex by measuring NADH oxidation to NAD+ using varying 2-trans-dodecenoyl-CoA substrate and fixed NADH levels by UV/visible spectrophotometry

[6] = target: T2, Enoyl-[acyl-carrier-protein] reductase [NADH] (Mycobacterium tuberculosis); remark: listed apart in the source
Description: Non-competitive inhibition of Mycobacterium tuberculosis recombinant InhA assessed as inhibitory dissociation constant for the enzyme-inhibitor complex by measuring NADH oxidation to NAD+ using varying 2-trans-dodecenoyl-CoA substrate and fixed NADH levels by UV/visible spectrophotometry

[7] = target: T2, Enoyl-[acyl-carrier-protein] reductase [NADH] (Mycobacterium tuberculosis); remark: listed apart in the source
Description: Non-competitive inhibition of Mycobacterium tuberculosis recombinant InhA assessed as inhibitory dissociation constant for the enzyme-substrate-inhibitor complex by measuring NADH oxidation to NAD+ using varying 2-trans-dodecenoyl-CoA substrate and fixed NADH levels by UV/visible spectrophotometry

## Cc1ccc(C(=O)N2CCN(C3c4ccccc4-c4ccccc43)CC2)cc1
[1]
  IC50: 0.222 µM
[2]
  MIC: 67.8 µM (≈ 25 µg/mL)

## O=C(c1ccccc1)N1CCN(C2c3ccccc3-c3ccccc32)CC1
[1]
  IC50: 0.183 µM
[2]
  MIC: > 35.2 µM

## COc1ccc(C(=O)N2CCN(C(c3ccccc3)c3ccccc3)CC2)cc1
[1]
  IC50: > 50 µM

## O=C(c1ccc(F)cc1)N1CCN(C2c3ccccc3-c3ccccc32)CC1
[1]
  IC50: 0.397 µM
[2]
  MIC: 67.8 µM (≈ 25.3 µg/mL)
[3]
  TDI: inactive
[4]
  Kii: 0.348 µM
[5]
  Kis: 0.338 µM

## O=C(c1cccc(F)c1)N1CCN(C2c3ccccc3-c3ccccc32)CC1
[1]
  IC50: 0.24 µM
[2]
  MIC: > 16.1 µM
[3]
  TDI: inactive
[4]
  Kii: 0.147 µM
[5]
  Kis: 0.118 µM

## COc1ccc(C(=O)N2CCN(C3c4ccccc4-c4ccccc43)CC2)cc1
[1]
  IC50: 2.9 µM
[3]
  TDI: inactive
[4]
  Kii: 1.95 µM
[6]
  Kis: 1.6 µM
[7]
  Kii: 7.22 µM

## O=C(/C=C/c1ccccc1)N1CCN(C2c3ccccc3-c3ccccc32)CC1
[1]
  IC50: > 50 µM

## Cc1ccc(C(=O)N2CCN(C(c3ccccc3)c3ccccc3)CC2)cc1
[1]
  IC50: 7.83 µM

## O=C(c1ccc([N+](=O)[O-])cc1)N1CCN(C2c3ccccc3-c3ccccc32)CC1
[1]
  IC50: > 50 µM

## O=C(c1cc(F)ccc1F)N1CCN(C(c2ccccc2)c2ccccc2)CC1
[1]
  IC50: > 50 µM

## c1ccc(CN2CCN(C3c4ccccc4-c4ccccc43)CC2)cc1
[1]
  IC50: > 50 µM

## O=C(c1ccccc1F)N1CCN(C2c3ccccc3-c3ccccc32)CC1
[1]
  IC50: 0.361 µM
[2]
  MIC: > 16.1 µM
[3]
  TDI: inactive
[4]
  Kii: 0.332 µM
[6]
  Kis: 0.149 µM
[7]
  Kii: 0.66 µM

## Cc1ccccc1S(=O)(=O)N1CCN(C2c3ccccc3-c3ccccc32)CC1
[1]
  IC50: > 50 µM

## O=C(c1cc(F)ccc1F)N1CCN(C2c3ccccc3-c3ccccc32)CC1
[1]
  IC50: 1.57 µM
[2]
  MIC: > 15.3 µM
[3]
  TDI: inactive
[4]
  Kii: 1.28 µM
[6]
  Kis: 0.788 µM
[7]
  Kii: 3.25 µM

## O=S(=O)(c1ccccc1)N1CCN(C2c3ccccc3-c3ccccc32)CC1
[1]
  IC50: 20 µM

## O=C(/C=C/c1ccccc1)N1CCN(C(c2ccccc2)c2ccccc2)CC1
[1]
  IC50: > 50 µM

## O=S(=O)(c1ccccc1)N1CCN(C(c2ccccc2)c2ccccc2)CC1
[1]
  IC50: > 50 µM

## O=C(c1ccc(Cl)cc1)N1CCN(C2c3ccccc3-c3ccccc32)CC1
[1]
  IC50: 1.69 µM
[3]
  TDI: inactive
[4]
  Kii: 1.12 µM
[6]
  Kis: 2.77 µM
[7]
  Kii: 2 µM

## O=C(c1ccncc1)N1CCN(C2c3ccccc3-c3ccccc32)CC1
[1]
  IC50: 9.77 µM

## Cc1cccc(C(=O)N2CCN(C3c4ccccc4-c4ccccc43)CC2)c1
[1]
  IC50: 0.25 µM
[2]
  MIC: > 16.2 µM
[3]
  TDI: inactive
[4]
  Kii: 0.185 µM
[6]
  Kis: 0.162 µM
[7]
  Kii: 0.348 µM

## Cc1ccccc1C(=O)N1CCN(C2c3ccccc3-c3ccccc32)CC1
[1]
  IC50: 5.99 µM

## O=C(c1ccc(Cl)cc1)N1CCN(C(c2ccccc2)c2ccccc2)CC1
[1]
  IC50: > 50 µM

## O=C(c1ccccc1)N1CCN(C(c2ccccc2)c2ccccc2)CC1
[1]
  IC50: 16 µM

## O=C(c1ccc(F)cc1)N1CCN(C(c2ccccc2)c2ccccc2)CC1
[1]
  IC50: > 50 µM

## O=C(CN1CCN(C2c3ccccc3-c3ccccc32)CC1)Nc1ccccc1
[1]
  IC50: > 50 µM
